The values that follow come from ChEMBL document CHEMBL1268981, “2-Methyl-3-furanyl-4H-1,2,4-triazol-3-ylthioamides: a new class of selective orexin 2 antagonists” (Bioorg Med Chem Lett, 2010).

For test [1], the target named is T1, Orexin/Hypocretin receptor type 1 (Homo sapiens, UniProt O43613).
T1 sequence (O43613 whole entry): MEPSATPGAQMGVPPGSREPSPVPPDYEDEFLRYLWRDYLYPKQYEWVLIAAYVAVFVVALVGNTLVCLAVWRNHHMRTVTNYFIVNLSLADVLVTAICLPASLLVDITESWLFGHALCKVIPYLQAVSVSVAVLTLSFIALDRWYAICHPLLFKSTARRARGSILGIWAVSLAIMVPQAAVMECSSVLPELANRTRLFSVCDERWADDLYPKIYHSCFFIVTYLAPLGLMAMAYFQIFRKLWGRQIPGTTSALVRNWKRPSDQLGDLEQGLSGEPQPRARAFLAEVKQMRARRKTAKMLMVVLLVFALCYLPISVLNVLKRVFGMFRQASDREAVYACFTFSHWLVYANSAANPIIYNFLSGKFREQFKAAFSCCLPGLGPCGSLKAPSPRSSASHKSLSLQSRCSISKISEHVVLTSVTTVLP
The test can be described thus: Antagonist activity against human orexin 1 receptor expressed in CHO cells assessed as effect in calcium mobilization by FLIPR assay. The test is classed as functional, cell-based.

Test [2] deals with T2, Orexin receptor type 2 (Homo sapiens, UniProt O43614).
T2 sequence (O43614 whole entry): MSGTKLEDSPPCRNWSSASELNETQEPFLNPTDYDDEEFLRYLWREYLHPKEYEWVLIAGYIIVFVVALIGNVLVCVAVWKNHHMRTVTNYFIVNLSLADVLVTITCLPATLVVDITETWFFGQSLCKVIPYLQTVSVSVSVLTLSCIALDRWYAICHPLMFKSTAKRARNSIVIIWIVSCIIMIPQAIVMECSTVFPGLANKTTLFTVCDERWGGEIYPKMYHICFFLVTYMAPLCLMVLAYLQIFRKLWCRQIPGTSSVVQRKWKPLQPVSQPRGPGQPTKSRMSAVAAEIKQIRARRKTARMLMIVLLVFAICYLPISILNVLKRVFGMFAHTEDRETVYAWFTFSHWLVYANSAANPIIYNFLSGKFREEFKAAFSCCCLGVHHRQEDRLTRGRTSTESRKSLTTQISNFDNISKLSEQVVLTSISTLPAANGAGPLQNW
The test can be described thus: Antagonist activity against human orexin 2 receptor expressed in CHO cells assessed as effect in calcium mobilization by FLIPR assay. Type of test: functional, cell-based.

Test [3] addresses T3, Orexin receptor type 2 (Rattus norvegicus) (UniProt P56719).
T3 sequence (whole entry): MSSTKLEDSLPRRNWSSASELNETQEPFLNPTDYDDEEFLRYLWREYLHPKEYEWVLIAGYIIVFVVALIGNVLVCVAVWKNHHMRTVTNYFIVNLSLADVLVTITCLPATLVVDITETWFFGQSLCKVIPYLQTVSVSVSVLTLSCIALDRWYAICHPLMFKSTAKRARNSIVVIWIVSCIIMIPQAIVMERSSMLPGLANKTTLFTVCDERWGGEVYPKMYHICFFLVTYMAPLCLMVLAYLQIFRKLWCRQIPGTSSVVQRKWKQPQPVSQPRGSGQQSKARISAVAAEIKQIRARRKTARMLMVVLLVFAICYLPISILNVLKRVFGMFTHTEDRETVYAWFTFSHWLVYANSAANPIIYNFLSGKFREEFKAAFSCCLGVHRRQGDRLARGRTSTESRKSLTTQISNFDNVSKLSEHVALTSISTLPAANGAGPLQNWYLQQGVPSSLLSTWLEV
Description: Antagonist activity against rat orexin 2 receptor expressed in RBL cells by [3H]inositol phosphate accumulation assay. Type of test: functional, cell-based.

The target of test [4] is T4, Orexin/Hypocretin receptor type 1 (Rattus norvegicus) (UniProt P56718).
T4 sequence (whole entry): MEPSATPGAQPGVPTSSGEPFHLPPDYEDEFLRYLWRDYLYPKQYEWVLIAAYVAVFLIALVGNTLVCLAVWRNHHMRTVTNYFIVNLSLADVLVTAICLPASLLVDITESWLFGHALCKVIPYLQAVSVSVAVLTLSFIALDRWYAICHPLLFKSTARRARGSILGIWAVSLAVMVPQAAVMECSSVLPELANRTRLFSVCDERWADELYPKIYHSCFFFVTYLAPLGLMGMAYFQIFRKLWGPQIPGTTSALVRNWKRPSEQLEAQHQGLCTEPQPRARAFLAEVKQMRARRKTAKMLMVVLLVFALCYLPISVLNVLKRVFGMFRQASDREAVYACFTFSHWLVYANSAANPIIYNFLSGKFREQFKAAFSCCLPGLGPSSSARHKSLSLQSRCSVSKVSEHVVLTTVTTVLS
Description: Antagonist activity against rat orexin 1 receptor expressed in RBL cells by [3H]inositol phosphate accumulation assay. The test is classed as functional, cell-based.

For test [5], the target named is T5, Cytochrome P450 1A2 (Homo sapiens, UniProt P05177).
T5 sequence (P05177 whole entry): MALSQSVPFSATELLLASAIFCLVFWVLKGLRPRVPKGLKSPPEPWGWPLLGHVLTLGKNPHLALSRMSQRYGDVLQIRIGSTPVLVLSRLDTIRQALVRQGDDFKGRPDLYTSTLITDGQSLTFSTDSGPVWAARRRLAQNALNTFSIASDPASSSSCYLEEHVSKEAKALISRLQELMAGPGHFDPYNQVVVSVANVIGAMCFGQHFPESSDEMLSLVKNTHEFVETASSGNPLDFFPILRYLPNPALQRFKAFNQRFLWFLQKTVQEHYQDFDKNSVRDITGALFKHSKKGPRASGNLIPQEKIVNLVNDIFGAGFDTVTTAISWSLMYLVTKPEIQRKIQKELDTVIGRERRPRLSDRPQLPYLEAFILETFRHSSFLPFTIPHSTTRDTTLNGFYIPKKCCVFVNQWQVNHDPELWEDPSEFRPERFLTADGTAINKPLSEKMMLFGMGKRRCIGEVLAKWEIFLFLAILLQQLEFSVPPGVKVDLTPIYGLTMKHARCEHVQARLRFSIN
Description: Inhibition of CYP1A2 by CYPEX bactosome P450 inhibition assay. Type of test: ADME.

The target in test [6] is Cytochrome P450 2C9 (Homo sapiens, UniProt P11712). The test can be described thus: Inhibition of CYP2C9 by CYPEX bactosome P450 inhibition assay. The test is classed as ADME.
Test [7] deals with Cytochrome P450 2C19 (Homo sapiens, UniProt P33261). The test can be described thus: Inhibition of CYP2C19 by CYPEX bactosome P450 inhibition assay. The test is classed as ADME.
For test [8], the target named is Cytochrome P450 2D6 (Homo sapiens, UniProt P10635). Description: Inhibition of CYP2D6 by CYPEX bactosome P450 inhibition assay. The test is classed as ADME.
Test [9] concerns the target T6, Cytochrome P450 3A4 (Homo sapiens, UniProt P08684). Description: Inhibition of CYP3A4 by CYPEX bactosome P450 inhibition assay. Type of test: ADME.
For test [10], the target named is T6, Cytochrome P450 3A4. Description: Inhibition of CYP3A4 using DEF substrate by CYPEX bactosome P450 inhibition assay. Type of test: ADME.

Activity calls are given as the source filed them. No cut-off for these calls is given here.

T6 sequence (P08684 whole entry): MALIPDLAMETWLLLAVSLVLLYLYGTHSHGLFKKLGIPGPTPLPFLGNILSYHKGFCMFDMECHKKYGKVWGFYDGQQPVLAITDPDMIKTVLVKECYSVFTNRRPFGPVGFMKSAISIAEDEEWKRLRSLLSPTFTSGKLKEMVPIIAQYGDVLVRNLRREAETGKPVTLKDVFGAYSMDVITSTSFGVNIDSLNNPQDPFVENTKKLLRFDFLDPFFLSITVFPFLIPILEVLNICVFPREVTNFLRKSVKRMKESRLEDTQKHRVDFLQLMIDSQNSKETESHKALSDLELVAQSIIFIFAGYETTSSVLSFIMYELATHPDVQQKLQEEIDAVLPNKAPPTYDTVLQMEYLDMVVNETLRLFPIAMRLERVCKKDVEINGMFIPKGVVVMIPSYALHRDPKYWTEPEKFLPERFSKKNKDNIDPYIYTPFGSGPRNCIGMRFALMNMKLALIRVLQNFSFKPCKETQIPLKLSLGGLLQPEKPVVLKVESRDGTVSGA
Chain of Cytochrome P450 2D6 (P10635 whole entry): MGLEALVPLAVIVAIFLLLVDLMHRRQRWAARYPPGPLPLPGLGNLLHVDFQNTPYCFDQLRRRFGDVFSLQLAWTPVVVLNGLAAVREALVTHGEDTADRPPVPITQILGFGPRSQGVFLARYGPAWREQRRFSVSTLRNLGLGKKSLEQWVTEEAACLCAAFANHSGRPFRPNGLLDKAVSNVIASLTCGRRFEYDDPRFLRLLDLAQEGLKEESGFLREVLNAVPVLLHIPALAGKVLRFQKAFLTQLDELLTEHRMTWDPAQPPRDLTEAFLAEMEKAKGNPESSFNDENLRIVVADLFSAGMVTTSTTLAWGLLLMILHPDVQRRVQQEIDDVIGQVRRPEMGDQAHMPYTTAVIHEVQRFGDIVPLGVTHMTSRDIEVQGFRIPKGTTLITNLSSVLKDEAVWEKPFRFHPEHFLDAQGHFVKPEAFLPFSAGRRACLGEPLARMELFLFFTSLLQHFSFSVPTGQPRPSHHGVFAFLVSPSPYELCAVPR
Chain of Cytochrome P450 2C19 (P33261 whole entry): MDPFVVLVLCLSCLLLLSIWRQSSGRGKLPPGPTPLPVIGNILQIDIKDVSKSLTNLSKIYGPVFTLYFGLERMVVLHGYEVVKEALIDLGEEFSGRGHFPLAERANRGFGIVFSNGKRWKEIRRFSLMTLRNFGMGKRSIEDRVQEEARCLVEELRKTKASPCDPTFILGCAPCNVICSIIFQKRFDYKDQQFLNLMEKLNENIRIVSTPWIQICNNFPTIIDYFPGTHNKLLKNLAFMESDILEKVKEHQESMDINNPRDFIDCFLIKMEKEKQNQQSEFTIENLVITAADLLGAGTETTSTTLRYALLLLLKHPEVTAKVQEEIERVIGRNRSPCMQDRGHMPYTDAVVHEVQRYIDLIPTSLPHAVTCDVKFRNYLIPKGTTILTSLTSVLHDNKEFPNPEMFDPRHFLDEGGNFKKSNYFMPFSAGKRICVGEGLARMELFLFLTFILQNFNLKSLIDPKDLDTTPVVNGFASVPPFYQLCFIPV
Chain of Cytochrome P450 2C9 (P11712 whole entry): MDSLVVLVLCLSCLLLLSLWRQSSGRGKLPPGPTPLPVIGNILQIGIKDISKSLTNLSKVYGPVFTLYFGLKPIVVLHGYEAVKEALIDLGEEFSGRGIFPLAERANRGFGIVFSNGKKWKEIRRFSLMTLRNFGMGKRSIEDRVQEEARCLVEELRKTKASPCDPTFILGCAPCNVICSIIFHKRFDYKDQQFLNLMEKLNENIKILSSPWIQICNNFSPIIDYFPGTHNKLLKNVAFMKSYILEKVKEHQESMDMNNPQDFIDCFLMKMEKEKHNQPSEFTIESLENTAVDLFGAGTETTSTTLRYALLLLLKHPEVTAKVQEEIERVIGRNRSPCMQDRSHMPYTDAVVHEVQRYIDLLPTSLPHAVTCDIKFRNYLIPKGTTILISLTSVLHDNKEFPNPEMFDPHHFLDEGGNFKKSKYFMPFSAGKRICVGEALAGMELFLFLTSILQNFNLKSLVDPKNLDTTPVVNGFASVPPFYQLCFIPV

With `Cc1ccc(NC(=O)CSc2nnc(-c3ccoc3C)n2Cc2ccco2)cc1C`, the Ki in test [1] was 631 nM; in test [2], 2.51 nM.
Regarding `Cc1cccc(NC(=O)CSc2nnc(-c3ccoc3C)n2Cc2ccco2)c1C`, the Ki in test [1] and in test [2] was over 15800 nM throughout.
For `Cc1occc1-c1nnc(SCC(=O)NN2CCc3ccccc32)n1Cc1ccco1`, the Ki was over 15800 nM in test [1] and 1000 nM in [2].
As for `Cc1ccc(NC(=O)CSc2nnc(-c3ccoc3C)n2Cc2ccco2)cc1`, the figures for the Ki in test [1] and in [2] were over 15800 nM and 39.8 nM, respectively.
Regarding `CC(=O)c1cccc(NC(=O)CSc2nnc(-c3ccoc3C)n2Cc2ccco2)c1`, the Ki is 3160 nM in test [1] and 316 nM in test [2].
Turning to `Cc1ccc(NC(=O)CSc2nnc(-c3ccoc3C)n2Cc2ccco2)c(C)c1`, the Ki in test [1] was 1260 nM; in test [2] it was 501 nM.
The like results for `COc1ccc(NC(=O)CSc2nnc(-c3ccoc3C)n2Cc2ccco2)cc1` were, in that order, over 15800 nM and 200 nM.
For `COc1ccccc1NC(=O)CSc1nnc(-c2ccoc2C)n1Cc1ccco1`, the Ki in test [1] was over 15800 nM; in test [2] it was 501 nM.
As to `CCC(C)NC(=O)CSc1nnc(-c2ccoc2C)n1Cc1ccco1` (stereo not given), the inhibition constant (Ki) in test [1] and in [2] was over 15800 nM in each case.
Consider `Cc1cc(C)cc(N(C(=O)CSc2nnc(-c3ccoc3C)n2Cc2ccco2)c2cccnc2)c1`, for which the Ki in [1] was over 15800 nM; in [2], 2000 nM.
For `Cc1nnc(NC(=O)CSc2nnc(-c3ccoc3C)n2Cc2ccco2)s1`, the values for the Ki in test [1] and in [2] were over 15800 nM and 398 nM, respectively.
For the compound `Cc1cccc(NC(=O)CSc2nnc(-c3ccoc3C)n2Cc2ccco2)c1`, the values for the Ki in test [1] and in test [2] were 2510 nM and 50.1 nM, respectively.
The like results for `Cc1occc1-c1nnc(SCC(=O)Nc2ccc(Cl)cc2)n1Cc1ccco1` were, in that order, 2000 nM and 100 nM.
As to `Cc1cccc(C)c1NC(=O)CSc1nnc(-c2ccoc2C)n1Cc1ccco1`, the Ki in [1] and in [2] was over 15800 nM throughout.
For the compound `Cc1ccccc1NC(=O)CSc1nnc(-c2ccoc2C)n1Cc1ccco1`, the Ki in test [1] and in [2] was over 15800 nM each time.
For `Cc1occc1-c1nnc(SCC(=O)Nc2ccccc2)n1Cc1ccco1`, the results for the Ki in [1] and in test [2] were over 15800 nM and 1000 nM, respectively.
With `Cc1occc1-c1nnc(SCC(=O)Nc2cccc(Cl)c2)n1Cc1ccco1`, the results for the Ki in test [1] and in test [2] were 2000 nM and 63.1 nM, respectively.
`Cc1occc1-c1nnc(SCC(=O)Nc2ccc(F)c(Cl)c2)n1Cc1ccco1`: the Ki in test [1] was 1000 nM; in test [2], 39.8 nM.
In the case of `Cc1occc1-c1nnc(SCC(=O)Nc2ccc(F)cc2)n1Cc1ccco1`, the Ki in [1] is over 15800 nM; in [2] it was 158 nM.
On to `Cc1cc(C)cc(N(C(=O)CSc2nnc(-c3ccoc3C)n2Cc2ccco2)C2CNCCN2)c1` (stereo not given), for which the values for the Ki in [1] and in [2] were over 15800 nM and 631 nM, respectively.
For the compound `Cc1occc1-c1nnc(SCC(=O)Nc2nccs2)n1Cc1ccco1`, the results for the Ki in [1] and in test [2] were over 15800 nM and 1000 nM, respectively.
With `Cc1occc1-c1nnc(SCC(N)=O)n1Cc1ccco1`, the Ki in test [1] and in test [2] was over 15800 nM each time.
Regarding `CC(=O)c1ccc(NC(=O)CSc2nnc(-c3ccoc3C)n2Cc2ccco2)cc1`, the Ki in test [1] is 2510 nM; in [2], 31.6 nM.
As for `Cc1occc1-c1nnc(SCC(=O)Nc2ccccc2F)n1Cc1ccco1`, the Ki in test [1] is over 15800 nM; in [2], 2000 nM.
`Cc1csc(NC(=O)CSc2nnc(-c3ccoc3C)n2Cc2ccco2)n1`: the results for the Ki in [1] and in test [2] were over 15800 nM and 100 nM, respectively.
As to `Cc1cc(C)cc(NC(=O)CSc2nnc(-c3ccoc3C)n2Cc2ccco2)c1`, the inhibition entry in [3] and in test [4] was “Active” in each case. For the same compound, the results for the Ki in [1] and in test [2] were 794 nM and 1.58 nM, respectively. In addition, the IC50 in test [5] was over 5000 nM; in [6] it was over 5000 nM; in [7], over 5000 nM; in [8] it was over 5000 nM; in [9], over 5000 nM; in test [10], 2000 nM.
For the compound `Cc1occc1-c1nnc(SCC(=O)NCCc2ccccc2)n1Cc1ccco1`, the Ki in test [1] was over 15800 nM; in [2], 1580 nM.
Take `Cc1cc(C)cc(N(C(=O)CSc2nnc(-c3ccoc3C)n2Cc2ccco2)c2ccccn2)c1`: the results for the Ki in [1] and in test [2] were over 15800 nM and 398 nM, respectively.
For the compound `COc1ccc(C)cc1NC(=O)CSc1nnc(-c2ccoc2C)n1Cc1ccco1`, the Ki in test [1] was 2510 nM; in test [2], 15.8 nM.
The like results for `Cc1nc(C(=O)N2CCCC[C@H]2CNC(=O)c2cccc3occc23)c(-c2ccc(F)cc2)s1` [SB-649868] were, in that order, 0.316 nM and 0.398 nM.
For `Cc1occc1-c1nnc(SCC(=O)Nc2cccc(-c3ccc4c(c3)OCO4)c2)n1Cc1ccco1`, in that order: over 15800 nM and 251 nM.
`Cc1ccc(C)c(NC(=O)CSc2nnc(-c3ccoc3C)n2Cc2ccco2)c1`: the Ki in test [1] is over 15800 nM.
Consider `Cc1occc1-c1nnc(SCC(=O)Nc2cccc(F)c2)n1Cc1ccco1`, for which the Ki was over 15800 nM in test [1] and 501 nM in test [2].
The like results for `Cc1occc1-c1nnc(SCC(=O)Nc2ccc(N(C)C)cc2)n1Cc1ccco1` were, in that order, 794 nM and 158 nM.
